Experimental data as given in patent publication US12662479B2 (Foghorn Therapeutics Inc., priority 2020, dated 2026).
Read-outs that look alike come from different tables or passages of the source.

Experiments:
[1] = target: T1, HiBit-BRM fusion protein (Homo sapiens, UniProt P51531); assay: HiBiT-BRM cell-based degradation assay (Nano-Glo HiBiT Lytic Detection, 24 h); conditions: HeLa cells expressing HiBiT-BRM; for DC50: read-out: BRM HiBit Degradation IC50; for BRM HiBit Degradation Maximum measured: top dose 30 μM
T1 construct: expressed in transfected cells
T1 sequence (P51531 whole entry, the tested form may be a part): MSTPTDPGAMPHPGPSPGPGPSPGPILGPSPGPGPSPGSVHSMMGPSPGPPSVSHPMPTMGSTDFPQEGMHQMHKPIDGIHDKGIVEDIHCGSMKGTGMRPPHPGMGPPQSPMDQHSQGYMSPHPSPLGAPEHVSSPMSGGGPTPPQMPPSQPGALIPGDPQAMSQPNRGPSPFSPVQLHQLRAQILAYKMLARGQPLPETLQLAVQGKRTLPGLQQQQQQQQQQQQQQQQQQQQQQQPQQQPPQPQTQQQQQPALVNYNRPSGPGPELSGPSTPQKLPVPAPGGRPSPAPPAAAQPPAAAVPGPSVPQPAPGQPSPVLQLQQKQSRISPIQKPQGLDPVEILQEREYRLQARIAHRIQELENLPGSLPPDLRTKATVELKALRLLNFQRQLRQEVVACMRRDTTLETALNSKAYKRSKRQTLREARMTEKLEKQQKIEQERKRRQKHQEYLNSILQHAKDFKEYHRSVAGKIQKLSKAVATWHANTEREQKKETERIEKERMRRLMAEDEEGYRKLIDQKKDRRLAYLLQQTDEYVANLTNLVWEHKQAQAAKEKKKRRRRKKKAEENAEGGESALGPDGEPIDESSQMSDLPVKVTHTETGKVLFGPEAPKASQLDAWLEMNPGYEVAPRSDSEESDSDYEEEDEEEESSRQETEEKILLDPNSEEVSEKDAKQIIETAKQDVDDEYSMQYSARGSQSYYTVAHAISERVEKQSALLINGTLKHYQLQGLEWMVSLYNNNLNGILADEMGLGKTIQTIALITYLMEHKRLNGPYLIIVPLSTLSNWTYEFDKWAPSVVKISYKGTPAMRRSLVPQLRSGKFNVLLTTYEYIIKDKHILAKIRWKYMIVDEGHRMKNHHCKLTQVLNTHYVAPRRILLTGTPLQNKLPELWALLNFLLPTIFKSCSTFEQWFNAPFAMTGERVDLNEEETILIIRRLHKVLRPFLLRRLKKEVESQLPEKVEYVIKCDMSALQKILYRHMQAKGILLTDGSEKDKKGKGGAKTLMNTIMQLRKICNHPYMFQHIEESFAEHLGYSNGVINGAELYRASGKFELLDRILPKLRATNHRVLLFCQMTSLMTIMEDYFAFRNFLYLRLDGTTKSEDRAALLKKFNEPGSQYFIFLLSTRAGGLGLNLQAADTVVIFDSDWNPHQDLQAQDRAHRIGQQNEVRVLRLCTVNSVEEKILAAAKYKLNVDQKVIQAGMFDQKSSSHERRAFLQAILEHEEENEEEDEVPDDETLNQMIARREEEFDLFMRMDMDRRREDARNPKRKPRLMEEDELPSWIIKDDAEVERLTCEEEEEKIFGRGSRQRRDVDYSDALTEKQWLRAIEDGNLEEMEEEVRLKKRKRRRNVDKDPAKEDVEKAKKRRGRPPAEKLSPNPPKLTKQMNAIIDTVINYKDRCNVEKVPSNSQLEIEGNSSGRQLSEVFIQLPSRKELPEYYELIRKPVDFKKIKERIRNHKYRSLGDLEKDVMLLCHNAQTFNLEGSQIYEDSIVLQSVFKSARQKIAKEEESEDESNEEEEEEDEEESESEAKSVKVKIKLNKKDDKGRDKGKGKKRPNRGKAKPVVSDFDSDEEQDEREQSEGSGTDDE
Procedure, shortened: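 Residual HiBiT-BRM in a stable HeLa line was measured by Nano-Glo lytic luminescence after 24 h compound exposure (top final dose 30 μM, 3-fold, 10 points, duplicate). Values are % degradation, scaled between DMSO-treated cells and cells given 2 μM of a known BRM/BRG1 degrader.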

[2] = target: T2, HiBit-BRG1 fusion protein (Homo sapiens, UniProt P51532); assay: HiBiT-BRG1 cell-based degradation assay (Nano-Glo HiBiT Lytic Detection, 24 h); conditions: for Dmax: HeLa, top dose 30 μM, read-out: BRG1 HiBit Degradation Maximum measured
T2 construct: expressed in transfected cells
T2 sequence (P51532 whole entry, the tested form may be a part): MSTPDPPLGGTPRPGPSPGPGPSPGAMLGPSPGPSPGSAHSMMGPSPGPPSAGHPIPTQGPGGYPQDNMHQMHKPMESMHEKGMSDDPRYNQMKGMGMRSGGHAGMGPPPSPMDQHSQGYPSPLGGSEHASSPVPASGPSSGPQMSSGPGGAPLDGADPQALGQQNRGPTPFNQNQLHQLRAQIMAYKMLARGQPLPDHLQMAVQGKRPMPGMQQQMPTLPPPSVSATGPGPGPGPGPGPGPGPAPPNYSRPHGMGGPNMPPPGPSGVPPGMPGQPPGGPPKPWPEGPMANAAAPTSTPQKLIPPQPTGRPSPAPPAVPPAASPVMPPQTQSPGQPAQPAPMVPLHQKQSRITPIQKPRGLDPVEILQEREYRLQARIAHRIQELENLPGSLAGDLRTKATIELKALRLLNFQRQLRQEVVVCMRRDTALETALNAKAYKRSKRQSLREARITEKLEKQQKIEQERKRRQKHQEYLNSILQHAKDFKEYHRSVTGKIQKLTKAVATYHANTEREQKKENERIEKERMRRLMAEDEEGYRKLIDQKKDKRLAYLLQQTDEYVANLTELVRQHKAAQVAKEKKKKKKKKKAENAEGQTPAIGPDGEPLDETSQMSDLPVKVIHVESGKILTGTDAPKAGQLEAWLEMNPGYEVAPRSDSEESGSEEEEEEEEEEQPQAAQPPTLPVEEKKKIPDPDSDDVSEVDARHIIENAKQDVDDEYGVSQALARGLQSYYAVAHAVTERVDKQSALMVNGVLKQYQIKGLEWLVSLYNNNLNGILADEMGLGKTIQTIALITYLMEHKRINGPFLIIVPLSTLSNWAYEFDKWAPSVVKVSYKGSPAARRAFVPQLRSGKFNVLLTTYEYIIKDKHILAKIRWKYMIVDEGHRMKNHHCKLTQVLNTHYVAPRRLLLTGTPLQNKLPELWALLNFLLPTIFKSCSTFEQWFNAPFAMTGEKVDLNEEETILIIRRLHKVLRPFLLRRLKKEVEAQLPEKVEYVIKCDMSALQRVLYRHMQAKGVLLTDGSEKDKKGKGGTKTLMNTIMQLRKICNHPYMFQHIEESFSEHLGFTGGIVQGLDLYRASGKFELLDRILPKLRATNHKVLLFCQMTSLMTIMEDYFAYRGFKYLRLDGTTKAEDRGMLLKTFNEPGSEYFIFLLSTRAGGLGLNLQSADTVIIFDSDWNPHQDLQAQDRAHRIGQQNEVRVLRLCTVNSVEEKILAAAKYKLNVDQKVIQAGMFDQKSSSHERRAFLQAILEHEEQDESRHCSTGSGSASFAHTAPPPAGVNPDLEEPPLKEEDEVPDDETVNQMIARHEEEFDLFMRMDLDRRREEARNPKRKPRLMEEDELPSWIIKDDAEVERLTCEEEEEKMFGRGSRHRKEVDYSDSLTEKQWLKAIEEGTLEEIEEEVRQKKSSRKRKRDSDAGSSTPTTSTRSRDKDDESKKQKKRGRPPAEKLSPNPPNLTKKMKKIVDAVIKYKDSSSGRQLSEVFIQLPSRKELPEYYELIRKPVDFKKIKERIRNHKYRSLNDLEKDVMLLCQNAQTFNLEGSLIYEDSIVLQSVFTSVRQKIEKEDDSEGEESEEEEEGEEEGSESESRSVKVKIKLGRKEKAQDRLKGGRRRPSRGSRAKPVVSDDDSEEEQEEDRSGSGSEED
Procedure, shortened: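 Degradation is scaled from DMSO-treated cells (0%) to cells given 2 μM of a known BRM/BRG1 degrader (100%). HeLa cells stably carrying HiBiT-BRG1 plus LgBiT (5000/well) were lysed with Nano-Glo HiBiT detection reagent, shaken 10 min at RT, and luminescence read.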

[3] = HeLa cells expressing HiBit-BRG1 and LgBit, read-out: BRG1 HiBit Degradation IC50
[4] = HeLa cells expressing HiBit-BRG1 and LgBit

SMILES | DC50 [1] | BRM HiBit Degradation Maximum measured [1] | DC50 [2, 3] | Dmax [2, 4] | DC50 ([2]; read-out: BRG1 HiBit Degradation IC50, HeLa cells expressing HiBit-BRG1 and LgBit)
CS(=O)(=O)n1ccc(C(=O)N[C@@H](COCc2ccc(C(=O)N3CC(COc4ccc5c(c4)C(=O)N(C4CCC(=O)NC4=O)C5=O)C3)cc2)C(=O)Nc2nc(-c3ccccc3)cs2)c1 (stereo partly drawn) [Compound 198, (2S)-3-([4-[3-([[2-(2,6-dioxopiperidin-3-yl)-1,3-dioxoisoindol-5-yl]oxy]methyl)azetidine-1-carbonyl]phenyl]methoxy)-2-[(1-methanesulfonylpyrrol-3-yl)formamido]-N-(4-phenyl-1,3-thiazol-2-yl)propanamide] | > 10 µM | C (‘C’ = Maximum degradation <50%) |  |  | > 10 µM
CS(=O)(=O)n1ccc(C(=O)N[C@@H](COCc2ccc(C(=O)NCCCCCCNc3ccc4c(c3)C(=O)N(C3CCC(=O)NC3=O)C4=O)cc2)C(=O)Nc2nc(-c3ccccc3)cs2)c1 (stereo partly drawn) [Compound 201, N-(6-[[2-(2,6-dioxopiperidin-3-yl)-1,3-dioxoisoindol-5-yl]amino]hexyl)-4-[[(2S)-2-[(1-methanesulfonylpyrrol-3-yl)formamido]-2-[(4-phenyl-1,3-thiazol-2-yl)carbamoyl]ethoxy]methyl]benzamide] | 0.1 to 1 µM | A (‘A’ = Maximum degradation >75%) | < 0.1 µM | > 75% | 
CS(=O)(=O)n1ccc(C(=O)N[C@@H](COCc2ccc(C(=O)NCCOCCOCCOCCNC(=O)COc3ccc4c(c3)C(=O)N(C3CCC(=O)NC3=O)C4=O)cc2)C(=O)Nc2nc(-c3ccccc3)cs2)c1 (stereo partly drawn) [Compound 202, (2S)-3-[(4-[[2-(2-[2-[2-(2-[[2-(2,6-dioxopiperidin-3-yl)-1,3-dioxoisoindol-5-yl]oxy]acetamido)ethoxy]ethoxy]ethoxy)ethyl]carbamoyl]phenyl)methoxy]-2-[(1-methanesulfonylpyrrol-3-yl)formamido]-N-(4-phenyl-1,3-thiazol-2-yl)propanamide] | > 10 µM | C (‘C’ = Maximum degradation <50%) | > 10 µM | < 50% | 
CS(=O)(=O)n1ccc(C(=O)N[C@@H](COCc2ccc(C(=O)NCCOCCOCCNC(=O)COc3ccc4c(c3)C(=O)N(C3CCC(=O)NC3=O)C4=O)cc2)C(=O)Nc2nc(-c3ccccc3)cs2)c1 (stereo partly drawn) [Compound 203, (2S)-3-([4-[(2-[2-[2-(2-[[2-(2,6-dioxopiperidin-3-yl)-1,3-dioxoisoindol-5-yl]oxy]acetamido)ethoxy]ethoxy]ethyl)carbamoyl]phenyl]methoxy)-2-[(1-methanesulfonylpyrrol-3-yl)formamido]-N-(4-phenyl-1,3-thiazol-2-yl)propanamide] | > 10 µM | C (‘C’ = Maximum degradation <50%) | > 10 µM | < 50% | 
CS(=O)(=O)n1ccc(C(=O)N[C@@H](COCc2ccc(C(=O)NCCCC#Cc3ccc4c(c3)C(=O)N(C3CCC(=O)NC3=O)C4=O)cc2)C(=O)Nc2nc(-c3ccccc3)cs2)c1 (stereo partly drawn) [Compound 204, N-[5-[2-(2,6-dioxopiperidin-3-yl)-1,3-dioxoisoindol-5-yl]pent-4-yn-1-yl]-4-[[(2S)-2-[(1-methanesulfonylpyrrol-3-yl)formamido]-2-[(4-phenyl-1,3-thiazol-2-yl)carbamoyl]ethoxy]methyl]benzamide] | > 10 µM | C (‘C’ = Maximum degradation <50%) | 0.1 to 1 µM | 50 to 75% | 
CS(=O)(=O)n1ccc(C(=O)N[C@@H](COCc2ccc(C(=O)NCCCC#Cc3cccc4c3C(=O)N(C3CCC(=O)NC3=O)C4=O)cc2)C(=O)Nc2nc(-c3ccccc3)cs2)c1 (stereo partly drawn) [Compound 205, N-[5-[2-(2,6-dioxopiperidin-3-yl)-1,3-dioxoisoindol-4-yl]pent-4-yn-1-yl]-4-[[(2S)-2-[(1-methanesulfonylpyrrol-3-yl)formamido]-2-[(4-phenyl-1,3-thiazol-2-yl)carbamoyl]ethoxy]methyl]benzamide] | > 10 µM | C (‘C’ = Maximum degradation <50%) | > 10 µM | < 50% | 
CS(=O)(=O)n1ccc(C(=O)N[C@@H](COCc2ccc(C(=O)NCCOc3cccc(OCCNc4ccc5c(c4)C(=O)N(C4CCC(=O)NC4=O)C5=O)c3)cc2)C(=O)Nc2nc(-c3ccccc3)cs2)c1 (stereo partly drawn) [Compound 207, N-[2-[3-(2-[[2-(2,6-dioxopiperidin-3-yl)-1,3-dioxoisoindol-5-yl]amino]ethoxy)phenoxy]ethyl]-4-[[(2S)-2-[(1-methanesulfonylpyrrol-3-yl)formamido]-2-[(4-phenyl-1,3-thiazol-2-yl)carbamoyl]ethoxy]methyl]benzamide] | 0.1 to 1 µM | B (‘B’ = Maximum degradation ≥50% and ≤75%) | 0.1 to 1 µM | 50 to 75% | 
Cc1ncsc1-c1ccc(CNC(=O)[C@@H]2C[C@@H](O)CN2C(=O)[C@@H](NC(=O)CCCCCCCCCCC(=O)NCc2ccc(COC[C@H](NC(=O)c3ccn(S(C)(=O)=O)c3)C(=O)Nc3nc(-c4ccccc4)cs3)cc2)C(C)(C)C)cc1 [Compound 209, N-[(2S)-1-[(2S,4R)-4-hydroxy-2-([[4-(4-methyl-1,3-thiazol-5-yl)phenyl]methyl]carbamoyl)pyrrolidin-1-yl]-3,3-dimethyl-1-oxobutan-2-yl]-N′-[(4-[[(2S)-2-[(1-methanesulfonylpyrrol-3-yl)formamido]-2-[(4-phenyl-1,3-thiazol-2-yl)carbamoyl]ethoxy]methyl]phenyl)methyl]dodecanediamide] | > 10 µM | C (‘C’ = Maximum degradation <50%) | > 10 µM | < 50% | 

Now from value to compound, other results behind:

DC50 [1] | BRM HiBit Degradation Maximum measured [1] | DC50 [2, 3] | Dmax [2, 4] | SMILES | DC50 ([2]; read-out: BRG1 HiBit Degradation IC50, HeLa cells expressing HiBit-BRG1 and LgBit)
> 10 µM | C (‘C’ = Maximum degradation <50%) | > 10 µM | < 50% | CS(=O)(=O)n1ccc(C(=O)N[C@@H](COCc2ccc(C(=O)N3CCC4(CC3)CC(Oc3ccc5c(c3)C(=O)N(C3CCC(=O)NC3=O)C5=O)C4)cc2)C(=O)Nc2nc(-c3ccccc3)cs2)c1 (stereo partly drawn) [Compound 199, (2S)-3-[[4-(2-[[2-(2,6-dioxopiperidin-3-yl)-1,3-dioxoisoindol-5-yl]oxy]-7-azaspiro[3.5]nonane-7-carbonyl)phenyl]methoxy]-2-[(1-methanesulfonylpyrrol-3-yl)formamido]-N-(4-phenyl-1,3-thiazol-2-yl)propanamide] | 
> 10 µM | C (‘C’ = Maximum degradation <50%) | > 10 µM | < 50% | CS(=O)(=O)n1ccc(C(=O)N[C@@H](COCc2ccc(C(=O)NCCOc3ccc4c(c3)C(=O)N(C3CCC(=O)NC3=O)C4=O)cc2)C(=O)Nc2nc(-c3ccccc3)cs2)c1 (stereo partly drawn) [Compound 200, N-(2-[[2-(2,6-dioxopiperidin-3-yl)-1,3-dioxoisoindol-5-yl]oxy]ethyl)-4-[[(2S)-2-[(1-methanesulfonylpyrrol-3-yl)formamido]-2-[(4-phenyl-1,3-thiazol-2-yl)carbamoyl]ethoxy]methyl]benzamide] | 
> 10 µM | C (‘C’ = Maximum degradation <50%) | > 10 µM | < 50% | CS(=O)(=O)n1ccc(C(=O)N[C@@H](COCc2ccc(C(=O)NCCOc3cccc(OCCNc4cccc5c4C(=O)N(C4CCC(=O)NC4=O)C5=O)c3)cc2)C(=O)Nc2nc(-c3ccccc3)cs2)c1 (stereo partly drawn) [Compound 206, N-[2-[3-(2-[[2-(2,6-dioxopiperidin-3-yl)-1,3-dioxoisoindol-4-yl]amino]ethoxy)phenoxy]ethyl]-4-[[(2S)-2-[(1-methanesulfonylpyrrol-3-yl)formamido]-2-[(4-phenyl-1,3-thiazol-2-yl)carbamoyl]ethoxy]methyl]benzamide] | 
> 10 µM | C (‘C’ = Maximum degradation <50%) | > 10 µM | < 50% | Cc1ncsc1-c1ccc(CNC(=O)[C@@H]2C[C@@H](O)CN2C(=O)[C@@H](NC(=O)CCCCC(=O)NCc2ccc(COC[C@H](NC(=O)c3ccn(S(C)(=O)=O)c3)C(=O)Nc3nc(-c4ccccc4)cs3)cc2)C(C)(C)C)cc1 [Compound 208, N-[(2S)-1-[(2S,4R)-4-hydroxy-2-([[4-(4-methyl-1,3-thiazol-5-yl)phenyl]methyl]carbamoyl)pyrrolidin-1-yl]-3,3-dimethyl-1-oxobutan-2-yl]-N′-[(4-[[(2S)-2-[(1-methanesulfonylpyrrol-3-yl)formamido]-2-[(4-phenyl-1,3-thiazol-2-yl)carbamoyl]ethoxy]methyl]phenyl)methyl]hexanediamide] | 
> 10 µM | C (‘C’ = Maximum degradation <50%) | > 10 µM | < 50% | Cc1ncsc1-c1ccc(CNC(=O)[C@@H]2C[C@@H](O)CN2C(=O)[C@@H](NC(=O)CCCCCCC(=O)NCc2ccc(COC[C@H](NC(=O)c3ccn(S(C)(=O)=O)c3)C(=O)Nc3nc(-c4ccccc4)cs3)cc2)C(C)(C)C)cc1 [Compound 210, N-[(2S)-1-[(2S,4R)-4-hydroxy-2-([[4-(4-methyl-1,3-thiazol-5-yl)phenyl]methyl]carbamoyl)pyrrolidin-1-yl]-3,3-dimethyl-1-oxobutan-2-yl]-N′-[(4-[[(2S)-2-[(1-methanesulfonylpyrrol-3-yl)formamido]-2-[(4-phenyl-1,3-thiazol-2-yl)carbamoyl]ethoxy]methyl]phenyl)methyl]octanediamide] | 
